Activity calls are given as the source filed them. The calls are words filed in the database; no cut-off is given here.
Legend:
[1] = target: T1, WD repeat-containing protein 5 (Homo sapiens, UniProt P61964); experiment: (§1) Displacement of N-(4'-((17-(5,5-difluoro-7-(1H-pyrrol-2-yl)-5H-5l4,6l4-dipyrrolo[1,2-c:2',1'-f][1,3,2]diazaborinin-3-yl)-15-oxo-4,7,10-trioxa-14-azaheptadecyl)carbamoyl)-4-(4-methylpiperazin-1-yl)-[1,1'-biphenyl]-3-yl)-6-hydroxy-4-(trifluoromethyl)nicotinamide tracer from N-/C-terminal NanoLuc-fused full-length WDR5 (unknown origin) transfected in HEK293T cell lysate incubated for 2 hrs by NanoBRET assay; type: subcellular
[2] = target: T1, WD repeat-containing protein 5; experiment: as §1, with “cells” for “cell lysate”; type: cell-based
[3] = target: T1, WD repeat-containing protein 5
Description: Binding affinity to recombinant WDR5 (unknown origin) expressed in Escherichia coli BL21 assessed as shift in melting temperature by DSF assay

MV4-11 [4] = experiment: Cytotoxicity against human MV4-11 cells assessed as defect in cell proliferation at 10 uM incubated for 15 days with replacement of fresh medium containing compound on every third day; type: functional, cell-based; conditions: time 15.0 day
MV4-11 [5] = experiment: Cytotoxicity against human MV4-11 cells expressing VHL assessed as defect in cell proliferation at 5 to 10 uM incubated for 15 days with replacement of fresh medium containing compound on every third day; type: functional, cell-based; conditions: dose 5-10 µM, time 15.0 day
[6] = target: T1, WD repeat-containing protein 5; remark: listed apart in the source
Description: Binding affinity to recombinant WDR5 (unknown origin) expressed in Escherichia coli BL21 assessed as change in entropy by isothermal titration calorimetry

[7] = target: T1, WD repeat-containing protein 5; experiment: Binding affinity to recombinant WDR5 (unknown origin) expressed in Escherichia coli BL21 assessed as dissociation constant by isothermal titration calorimetry
[8] = target: T1, WD repeat-containing protein 5; remark: listed apart in the source
Description: Binding affinity to recombinant WDR5 (unknown origin) expressed in Escherichia coli BL21 assessed as change in enthalpy by isothermal titration calorimetry

SMILES | IC50 [1] [µM] | IC50 [2] [µM] | deltaTm [3] [K] | Activity (MV4-11 [4]) | Activity (MV4-11 [5]) | TdeltaS [6] [kcal/mol] | Kd [7] [µM] | deltaH [8] [kcal/mol] | deltaTm ([3]; filed as modulator) [K]
Cc1ncsc1-c1ccc(CNC(=O)[C@@H]2C[C@@H](O)CN2C(=O)[C@@H](NC(=O)CCOCCOCCOCCOCCOCCOCCOCCOc2ccc(-c3cn4c(n3)CCC4)cc2CNC(=O)Cc2ccc(Cl)c(Cl)c2)C(C)(C)C)cc1 | ≥ 50 | ≥ 50 | 4.6 | – | – | – | – | – | –
Cc1ncsc1-c1ccc(CNC(=O)[C@@H]2C[C@@H](O)CN2C(=O)[C@@H](NC(=O)CCOCCOCCOCCOCCOCCOc2ccc(-c3cn4c(n3)CCC4)cc2CNC(=O)Cc2ccc(Cl)c(Cl)c2)C(C)(C)C)cc1 | ≥ 50 | ≥ 50 | 4.3 | – | – | – | – | – | –
Cc1ncsc1-c1ccc(CNC(=O)[C@@H]2C[C@@H](O)CN2C(=O)[C@@H](NC(=O)CCOCCOCCOc2ccc(-c3cn4c(n3)CCC4)cc2CNC(=O)Cc2ccc(Cl)c(Cl)c2)C(C)(C)C)cc1 | – | – | – | Active | Active | – | – | – | –
Cc1ncsc1-c1ccc(CNC(=O)[C@@H]2C[C@@H](O)CN2C(=O)[C@@H](NC(=O)CCOCCOCCOCCOc2ccc(-c3cn4c(n3)CCC4)cc2CNC(=O)Cc2ccc(Cl)c(Cl)c2)C(C)(C)C)cc1 | ≥ 50 | ≥ 50 | 3.6 | – | – | – | – | – | –
Cc1ncsc1-c1ccc(CNC(=O)[C@@H]2C[C@@H](O)CN2C(=O)[C@@H](NC(=O)CCOCCOc2ccc(-c3cn4c(n3)CCC4)cc2CNC(=O)Cc2ccc(Cl)c(Cl)c2)C(C)(C)C)cc1 | ≥ 50 | ≥ 50 | 7 | – | – | – | – | – | –
COc1cc(C(=O)NCCOCCOCCOCCOCCOCCOCCOCCNC(=O)c2ccc(-c3ccc(N4CCN(C)CC4)c(NC(=O)c4c[nH]c(=O)cc4C(F)(F)F)c3)cc2)ccc1NC(=O)[C@@H]1N[C@@H](CC(C)(C)C)[C@](C#N)(c2ccc(Cl)cc2F)[C@H]1c1cccc(Cl)c1F | ≥ 50 | ≥ 50 | 0.3 | – | – | – | – | – | –
Cc1ncsc1-c1ccc(CNC(=O)[C@@H]2C[C@@H](O)CN2C(=O)[C@@H](NC(=O)CCOCCOCCOCCOCCOc2cc(-c3cn4c(n3)CCC4)ccc2CNC(=O)Cc2ccc(Cl)c(Cl)c2)C(C)(C)C)cc1 | ≥ 50 | ≥ 50 | 3.4 | – | – | – | – | – | –
COc1ccc(-c2cn3c(n2)CCC3)cc1CNC(=O)Cc1ccc(Cl)c(Cl)c1 | ≥ 50 | ≥ 50 | – | – | – | 0.7 | 125 | -10 | 4.2
COc1cc(C(=O)NCc2ccc(CNC(=O)c3ccc(-c4ccc(N5CCN(C)CC5)c(NC(=O)c5c[nH]c(=O)cc5C(F)(F)F)c4)cc3)cc2)ccc1NC(=O)[C@@H]1N[C@@H](CC(C)(C)C)[C@](C#N)(c2ccc(Cl)cc2F)[C@H]1c1cccc(Cl)c1F | ≥ 50 | ≥ 50 | 0.7 | – | – | – | – | – | –
Cc1ncsc1-c1ccc(CNC(=O)[C@@H]2C[C@@H](O)CN2C(=O)[C@@H](NC(=O)CCOCCOCCOCCOCCOCCOCCOc2ccc(-c3cn4c(n3)CCC4)cc2CNC(=O)Cc2ccc(Cl)c(Cl)c2)C(C)(C)C)cc1 | ≥ 50 | ≥ 50 | 4.5 | – | – | – | – | – | –
COc1cc(C(=O)NCCOCCNC(=O)c2ccc(-c3ccc(N4CCN(C)CC4)c(NC(=O)c4c[nH]c(=O)cc4C(F)(F)F)c3)cc2)ccc1NC(=O)[C@@H]1N[C@@H](CC(C)(C)C)[C@](C#N)(c2ccc(Cl)cc2F)[C@H]1c1cccc(Cl)c1F | ≥ 50 | ≥ 50 | 0.9 | – | – | – | – | – | –

From ChEMBL document CHEMBL5149987, “Design, Synthesis, and Evaluation of WD-Repeat-Containing Protein 5 (WDR5) Degraders” (J Med Chem, 2021)
